Test results: patent EP4186500A1, “MEK INHIBITORS FOR THE PREVENTION AND TREATMENT OF LONG COVID SYNDROME” (Atriva Therapeutics GmbH, priority 2021, dated 2023)
Where two headings read alike, the source gives them in different places.

Key:
SARS-CoV-2 [1] = format: cell-based, Severe acute respiratory syndrome coronavirus; details: Caco-2, Vero E6 and Calu-3 cells; 100 µM, 75 µM, 50 µM; 24 hours
[2] = test system: Human T-cell Inflammation; assay: T-cell inflammation inhibition assay (ConA and PHA stimulation) in PBMC; details: 100, 50, and 25 µM, 24 hours, PBMC from three human donors
SARS-CoV-2 [3] = format: cell-based, Severe acute respiratory syndrome coronavirus; details: CaCo-2 cells, MOI 0.1; 50 and 100 µM ATR-002; 24h
[4] = human, in vivo
SARS-CoV-2 (FI) [5] = format: cell-based, Severe acute respiratory syndrome coronavirus; details: primary human ALI cultures, MOI 1.0; 50 µM and 100 µM; three cultures
SARS-CoV-2 (FI) [6] = format: cell-based, Severe acute respiratory syndrome coronavirus
[7] = test system: cytokine & chemokine gene expression; assay: Acute lung injury (ALI) mouse model, LPS induced cytokine and chemokine gene expression; format: in vivo; details: 5mg/kg LPS i.p.; 25 mg/kg ATR-002 i.p. one hour post stimulation; 6h post treatment
[8] = test system: IP10, TNF-alpha and MCP-1; assay: Cytokine/chemokine expression in LPS induced PBMC
pERK1/2 = assay: Wes analysis of ERK phosphorylation in SARS-CoV-2 infected Caco-2 cells; format: cell-based, Homo sapiens; details: CaCo-2 cells infected SARS-CoV-2 (MOI 0.1); 50 and 100 µM ATR-002; 24h
Procedure: For the Virus yield reduction assay a 24-well plate (Greiner Bio-One, Cat. 662-160) with 95% confluent Caco-2 cells was prepared. The wells were washed once with Caco-2 infection medium DMEM (Gibco, Cat. 41965-039) supplemented with 5% FCS (Capricorn, Cat. FBS-12A), 1% Penicillin/Streptomycin, (Sigma Aldrich, Cat. P4333) and 1% Non-essential amino acids (NEAA) (Merck, Cat. K 0293). Cells were infected with SARS-CoV-2 (MOI 0.1) for 1h in 200µL Caco-2 infection medium per well. Afterwards the Virus inoculum was removed completely and cells were treated with 1mL per well with different concentrations of ATR-002 (100µM, 50µM, 25µM, 12.5µM, 6.25µM, 3.125µM, 1.56µM, 0.78µM, 0.39µM, 0.195µM, 0.098µM, 0µM) in Caco-2 infection medium with 1% DMSO for 24h at 37°C, 5% CO2. […]
Wes™ capillary electrophoresis by ProteinSimple® was used to identify and quantify pERK1/2, ERK1/2 and SARS-CoV-2 Nucleoprotein. Cell lysates were diluted with 0.1X Sample Buffer (ProteinSimple, Abingdon, Oxford, UK) to approximately 50ng total protein per lane and analyzed using specific antibodies. […] The anti-rabbit secondary antibody (ProteinSimple, Cat. DM-001) and anti-mouse secondary antibody (ProteinSimple, Cat. DM-002) and all other reagents for WES analysis were also purchased from ProteinSimple and were ready to use.

[9] = test system: Human T-cell Inflammation; assay: T-cell inflammation inhibition assay (Anti-CD3 stimulation) in PBMC; details: 100, 50, and 25 µM, 24 hours, PBMC from three human donors
[10] = test system: SARS-CoV-2 viral gene RdRP; format: cell-based, Severe acute respiratory syndrome coronavirus; details: Vero cells, MOI 0.01; 50 µM ATR-002; 24, 36 and 48 hpi
SARS-CoV-2 strain FI = format: cell-based, Severe acute respiratory syndrome coronavirus; details: Vero cells, MOI 0.01; 50 µM ATR-002; 24h, 36h and 48h
memory T cells = assay: 12-day T cell clonal expansion with IFN-γ FluoroSpot (memory T cell reactivation)
[11] = test system: IL-6, IL-8, MCP-1, IP-10 and CCL5 mRNA; assay: Pro-inflammatory cytokine mRNA expression in SARS-CoV-2 infected Calu-3 cells (real-time PCR); format: cell-based, Homo sapiens; details: SARS-CoV-2 (FI) MOI 0.01, increasing amounts of ATR-002
MxA and IL8 mRNA = MxA and IL8 mRNA expression in poly (I:C) transfected A549 cells; format: cell-based, Homo sapiens; details: 100 ng/ml poly (I:C), 24 hours
ACE2 = ACE2 expression in Calu-3 cells (immunofluorescence microscopy and WES); format: cell-based, Homo sapiens; details: 100µM ATR-002, 24h
Procedure: Then the wells were washed once with PBS and fixed with 300µL/well 4% PFA in PBS for 10 minutes at room temperature. After another wash step with PBS, the cells were blocked for 1 hour with 1% BSA in PBS at room temperature before incubation with 200µL/well of the primary antibody (Goat-Anti-ACE2 antibody (R&D systems; Cat.: AF933; Lot.:HOK0320061) (1:20) in 1% BSA in PBS for 1h at room temperature on a shaker (100 rpm). Afterwards, the cells were washed three times with PBS before incubation with 200µL/well of the secondary antibody Donkey anti-Goat IgG (H+L) Highly Cross-Absorbed Secondary Antibody, Alexa Fluor Plus 647 (Invitrogen; Ref.: A32849TR; Lot.:VE306231) (1:200) in 1% BSA in PBS for 45 minutes at room temperature on a shaker. After another three wash steps with PBS, 200µL Rhodamine Phalloidin (Invitrogen; Ref.: R415; Lot.: 2157163) (1:40 in 1% BSA in PBS) were added to each well and incubated for 30 minutes at room temperature on a shaker. After two final wash steps with PBS, the cover slips were removed from the wells and mounted on microscope slides with Roti®-Mount FluorCare DAPI (Roth; Art.-Nr.: HP20.1; Lot.: 080293945). The slides were let dry at 4°C in the dark and then analysed using a confocal laser scanning microscope (LSM800, Zeiss).

VSV ΔG/GFP-Luc+SΔ21 = format: cell-based
SARS-CoV-2 [12] = assay: SARS-CoV-2 Syrian hamster infection model; details: for reduction of progeny virus in throat swabs (TCID50 assay): 100mg/kg loading dose then 75mg/kg daily, oral; for reduction of progeny virus in throat swabs (TCID50 assay) / reduction of viral load in throat swabs (PCR): day 3 p.i.
MCP-1 = MCP-1 expression in SARS-CoV-2 infected CaCo2 cells; format: cell-based, Homo sapiens; details: high amount of ATR-002 necessary
Calu-3 cells = assay: Cytotoxicity evaluation in Calu-3 cells; format: cell-based, Homo sapiens; details: 72 h treatment
Procedure: In a next step, Calu-3 cells were incubated with increasing amounts of ATR-002 over 24, 48 or 72 hours. Specifically, Calu-3 cells were infected with SARS-CoV-2 (FI) using a MOI of 0.01. 1 h.p.i. cells were treated with ATR-002. Mock, SARS-CoV-2 and DMSO served as controls. […] Untreated (SARS-CoV-2) and DMSO (0.1 %) treated cells served as negative controls. Data represents means ± SD of three independent experiments, each performed in triplicates. Data passed a one-way ANOVA followed by Dunnett's multiple comparison test (^∗∗ p≤0.0021; ^∗∗∗ p≤0,0002; ^∗∗∗∗ p≤0.0001) for each time point separately. DMSO was used as reference. […] Data in combination with (C) was used to calculate the CC50 value and the selectivity index (SI). […] Data represent means ± SD of three independent experiments.

[13] = LPS induced PMBC cells, 10µg/ml ATR-002

O=C(O)c1ccc(F)c(F)c1Nc1ccc(I)cc1Cl [ATR-002, 2-(2-chloro-4-iodophenylamino)-N-3,4-difluoro benzoic acid]
virus titer via RT-qPCR (N gene) (SARS-CoV-2 [1]): the effect seen on all cell types was comparable | inhibition of cytokine/chemokine stimulation ([2]; ConA stimulation): significant, dose dependent inhibition | inhibition of cytokine/chemokine stimulation ([2]; PHA stimulation): significant, dose dependent inhibition | SARS-CoV-2 virus titer (SARS-CoV-2 [3]): inhibition | nucleocapsid protein (SARS-CoV-2 [3]): inhibition | blood levels (pharmacokinetics exposure) [4]: confirm the maintenance of clinically relevant blood levels | safety and tolerability [4]: safe and well tolerable | safety of each dose cohort (Safety Review Committee) [4]: considered to be safe | serious adverse events [4]: no serious adverse events | production of progeny viral particles (SARS-CoV-2 (FI) [5]): completely blocked the production of progeny viral particles | cell damage of infected cells (light microscopy) (SARS-CoV-2 (FI) [6]; Calu-3 cells infected with SARS-CoV-2, Figure 6 D): did not show the characteristic cell damage | production of progeny viral particles (SARS-CoV-2 (FI) [6]; Calu-3 cells, MOI 0.01, ATR-002 10 - 150 µM, 24, 48 or 72 hours): concentration dependent decrease in the production of progeny viral particles | IL-1beta gene expression in lung [7]: decrease | IL-8 gene expression in lung [7]: decrease | IP-10 gene expression in lung [7]: decrease | MCP-1 gene expression in lung [7]: decrease | MIP-1beta gene expression in lung [7]: decrease | TNF-alpha gene expression in lung [7]: decrease | inhibition at 10 µg/mL ([8]; Homo sapiens, PBMC, read-out: inhibition of LPS induced MCP-1): > 90% | IP10 expression [8, 13]: reduced | MCP-1 expression [8, 13]: reduced | TNF-alpha expression [8, 13]: reduced | ERK-phosphorylation (pERK1/2): inhibition | inhibition of cytokine/chemokine stimulation [9]: significant, dose dependent inhibition | SARS-CoV-2 viral gene RdRP genome copy number [10]: confirmed | viral load (virus titer by plaque assay) (SARS-CoV-2 strain FI): lower viral load than control cells | Spot counts, representing the number of activated T cells (memory T cells; CEF peptide stimulated PBMCs, three donors, 5 or 10 pg/mL on three different time points, 12 days): not reduced | cell proliferation/density by microscope (memory T cells; in vitro culture of PBMC): no visible effect on cell proliferation/density | expression of pro-inflammatory cytokines (IL-6, IL-8, MCP-1, IP-10 and CCL5 mRNA) [11]: reduce the expression of pro-inflammatory cytokines | MxA mRNA expression (anti-viral interferon system) (MxA and IL8 mRNA): did not affect the stimulation of the anti-viral interferon system | expression of pro-inflammatory IL8 (MxA and IL8 mRNA; even with low concentrations): strong reduction | ACE2 expression (ACE2): reduction of ACE2 | internalization of the VSV pseudotype virus (GFP-positive cells) (VSV ΔG/GFP-Luc+SΔ21): reduction in the internalization of the VSV pseudotype virus | tolerability, weight loss, adverse effects (SARS-CoV-2 [12]; both treatment groups compared to vehicle group): well tolerated without significant weight loss | alveolar haemorrhage, oedema and type II pneumocyte hyperplasia (SARS-CoV-2 [12]; histopathology 4 days post infection, treated at days 1, 2, and 3 post infection): no haemorrhage, oedema and type II pneumocyte hyperplasia | score in alveolitis (SARS-CoV-2 [12]; histopathology 4 days post infection, treated at days 1, 2, and 3 post infection, vehicle score 3): 1 | reduction of progeny virus in throat swabs (TCID50 assay) (SARS-CoV-2 [12]; treated 4 hours p.i.): 1.1 log10 | reduction of viral load in throat swabs (PCR) (SARS-CoV-2 [12]; treated 4 hours p.i.): 1.1 log10 | reduction of progeny virus in throat swabs (TCID50 assay) (SARS-CoV-2 [12]; treated 24 hours p.i.): 1.3 log10 | reduction of viral load in throat swabs (PCR) (SARS-CoV-2 [12]; treated 24 hours p.i.): 1.2 log10 | percentage of affected lung area (SARS-CoV-2 [12]; treatment 4 hours p.i., day 4 p.i., P=0.0282): significantly reduced affected lung tissue | percentage of affected lung area (SARS-CoV-2 [12]; treatment 24 hours p.i., day 4 p.i., P=0.0314): significantly reduced affected lung tissue | reduction in infectious virus titers (TCID50/g tissue) in the nasal turbinates (SARS-CoV-2 [12]; treatment start 4 hours p.i., day 4 p.i.): 1.3 log10 | reduction of viral load in the nasal turbinates (PCR) (SARS-CoV-2 [12]; treatment started 4 hours p.i., day 4 p.i.): 1.1 log10 | infectious virus titers in the nasal turbinates (SARS-CoV-2 [12]; treatment started 24 hours p.i., day 4 p.i.): not the treatment started 24 hours p.i., significantly reduced infectious virus titers | MCP-1 expression (MCP-1): able to reduce MCP-1 expression | Cytotoxicity (Calu-3 cells): non-toxic concentration range

O=C(NOCC1CC1)c1ccc(F)c(F)c1Nc1ccc(I)cc1Cl [CI-1040, reference compound]
internalization of the VSV pseudotype virus (GFP-positive cells) (VSV ΔG/GFP-Luc+SΔ21): reduction in the internalization of the VSV pseudotype virus
